The results in this text go back to paper PMC4225009, “Structure-activity-relationship study of N-acyl-N-phenylpiperazines as potential inhibitors of the Excitatory Amino Acid Transporters (EAATs): improving the potency of a micromolar screening Hit is not truism” (SpringerPlus, 2013).

The structures appear in SMILES notation. Read-outs that look alike come from different tables or passages of the source. Some results are limits rather than exact numbers.

What all share (assay type): cell-based
Test [1] deals with T1, human EAAT1 (Homo sapiens, UniProt P43003).
T1 construct: expressed in transfected cells
T1 sequence (P43003 whole entry): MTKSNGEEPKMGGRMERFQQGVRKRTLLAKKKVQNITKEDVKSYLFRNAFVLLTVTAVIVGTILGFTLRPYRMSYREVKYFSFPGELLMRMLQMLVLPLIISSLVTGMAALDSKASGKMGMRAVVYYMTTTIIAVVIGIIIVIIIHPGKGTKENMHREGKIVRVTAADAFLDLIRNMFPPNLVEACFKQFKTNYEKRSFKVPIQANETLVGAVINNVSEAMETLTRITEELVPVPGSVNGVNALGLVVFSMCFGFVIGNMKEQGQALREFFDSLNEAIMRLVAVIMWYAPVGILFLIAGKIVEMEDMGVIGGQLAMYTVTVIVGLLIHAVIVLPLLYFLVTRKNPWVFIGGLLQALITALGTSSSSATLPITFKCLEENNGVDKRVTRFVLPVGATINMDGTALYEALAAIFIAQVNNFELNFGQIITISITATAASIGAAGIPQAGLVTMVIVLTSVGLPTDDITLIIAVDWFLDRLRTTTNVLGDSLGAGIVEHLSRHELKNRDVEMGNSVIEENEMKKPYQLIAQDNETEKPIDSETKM
The experiment in a line: [3H]-D-aspartate uptake assay at HEK293 cells stably expressing human EAAT1. An excerpt: (§1) In total, […] piperazine analogs 2.1-2.40 and 3.1-3.12 were characterized pharmacologically at stable HEK293 cells expressing human EAAT1-3 in a [^3H]-D-aspartate uptake assay, (Jensen & Bräuner-Osborne [2004]) and the results are summarized in Table 1 and Table 2. […] Usually, such findings would lead to the conclusion that the bicyclo-[2.2.1]-heptanyl group occupies a promiscuous hydrophobic pocket, which could be optimized for increased potency. However, upon increasing or decreasing the hydrophobic bulk and/or flexibility, a clear drop in potency was observed (analogs 2.1-2.17, Table 1). […] These findings could open up for the hypothesis that the pocket is indeed not hydrophobic but instead hydrophilic in nature. Upon binding of the hydrophobic alkane group, water molecules are forced out and ligand binding is entropically driven rather than enthalpically. Thus analogs 2.18-2.31, which comprise a hydrophobic group, could be potential inhibitors.
(§2) Analogs 2.22-2.31, 2.36-2.40, 3.3, 3.4, 3.6 and 3.12 were obtained as 5 mg portions pre-dissolved in DMSO from ChemBridge corporation and used directly in the [3H]-Asp-uptake assay.

The target in test [2] is T2, human EAAT2 (Homo sapiens, UniProt P43004).
T2 construct: expressed in transfected cells
T2 sequence (P43004 whole entry): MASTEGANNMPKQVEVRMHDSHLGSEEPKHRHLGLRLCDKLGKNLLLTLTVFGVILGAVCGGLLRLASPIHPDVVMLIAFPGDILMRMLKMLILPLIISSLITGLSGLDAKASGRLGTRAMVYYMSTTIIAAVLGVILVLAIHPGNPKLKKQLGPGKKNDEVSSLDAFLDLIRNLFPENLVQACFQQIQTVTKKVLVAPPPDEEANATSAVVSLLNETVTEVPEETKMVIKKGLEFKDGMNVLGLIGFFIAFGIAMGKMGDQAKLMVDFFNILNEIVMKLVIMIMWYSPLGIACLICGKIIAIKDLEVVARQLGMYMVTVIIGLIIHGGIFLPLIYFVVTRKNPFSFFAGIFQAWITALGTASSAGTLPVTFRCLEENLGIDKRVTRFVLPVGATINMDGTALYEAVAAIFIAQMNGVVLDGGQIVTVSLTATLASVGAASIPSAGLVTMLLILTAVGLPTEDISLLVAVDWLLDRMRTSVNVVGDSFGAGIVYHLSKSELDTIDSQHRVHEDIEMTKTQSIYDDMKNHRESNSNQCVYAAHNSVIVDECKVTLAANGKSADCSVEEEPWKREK
Description: [3H]-D-aspartate uptake assay at HEK293 cells stably expressing human EAAT2.
Description: as §1, §2

In test [3] the target is T3, human EAAT3 (Homo sapiens, UniProt P43005).
T3 construct: expressed in transfected cells
T3 sequence (P43005 1-524): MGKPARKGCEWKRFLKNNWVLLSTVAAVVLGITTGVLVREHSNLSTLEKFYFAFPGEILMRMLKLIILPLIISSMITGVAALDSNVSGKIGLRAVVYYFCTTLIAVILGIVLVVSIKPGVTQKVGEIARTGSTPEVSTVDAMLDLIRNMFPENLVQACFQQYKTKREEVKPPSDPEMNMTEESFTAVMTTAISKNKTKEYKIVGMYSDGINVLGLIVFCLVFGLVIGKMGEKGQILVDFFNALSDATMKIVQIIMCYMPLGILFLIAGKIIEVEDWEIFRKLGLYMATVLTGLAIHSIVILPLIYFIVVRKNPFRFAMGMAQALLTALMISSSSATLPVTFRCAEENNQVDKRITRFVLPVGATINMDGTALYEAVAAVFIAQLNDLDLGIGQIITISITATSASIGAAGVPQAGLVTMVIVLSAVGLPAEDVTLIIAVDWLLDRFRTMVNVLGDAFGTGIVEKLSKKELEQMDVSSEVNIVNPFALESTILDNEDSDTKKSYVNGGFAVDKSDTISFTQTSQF
The experiment in a line: [3H]-D-aspartate uptake assay at HEK293 cells stably expressing human EAAT3.
Description: as §1, §2

In test [4] the test system is human EAAT1-3. The experiment in a line: [3H]-D-aspartate uptake assay, statements made for EAAT1-3 together. To be noted: HEK293 cells expressing human EAAT1-3, [3H]-D-aspartate uptake.
Description: as §1, §2

[5] abbreviates: [3H]-D-aspartate uptake, HEK293 cells stably expressing human EAAT1, analogs 1 and 2.1-2.40 (Table 1), read-out: EAAT1 IC50.
Where [6] appears, read: [3H]-D-aspartate uptake, HEK293 cells stably expressing human EAAT2, analogs 1 and 2.1-2.40 (Table 1), read-out: EAAT2 IC50.
Setting [7] is: [3H]-D-aspartate uptake, HEK293 cells stably expressing human EAAT3, analogs 1 and 2.1-2.40 (Table 1), read-out: EAAT3 IC50.
The mark [8] stands for this setting: D-aspartate uptake, HEK293 cells stably expressing human EAAT1, analogs 3.1-3.12 (Table 2), read-out: EAAT1 IC50.
The mark [9] stands for this setting: D-aspartate uptake, HEK293 cells stably expressing human EAAT2, analogs 3.1-3.12 (Table 2), read-out: EAAT2 IC50.
Setting [10] is: D-aspartate uptake, HEK293 cells stably expressing human EAAT3, analogs 3.1-3.12 (Table 2), read-out: EAAT3 IC50.

As for `CC(C)CCC(=O)N1CCN(c2cccc(C(F)(F)F)c2)CC1` [2.10, 4-Methyl-1-(4-(3-(trifluoromethyl)phenyl)piperazin-1-yl)pentan-1-one], the IC50 in test [1] (setting [5]), in test [2] (setting [6]) and in test [3] (setting [7]) was greater than 300 µM throughout.
Consider `O=C(C1CCCC1)N1CCN(c2cccc(C(F)(F)F)c2)CC1` [2.4, Cyclopentyl(4-(3-(trifluoromethyl)phenyl)piperazin-1-yl)methanone], for which the IC50 in test [1], in test [2] and in test [3] was greater than 300 µM in each case.
For the molecule `O=C(C1CC2CCC1C2)N1CCN(c2cccc(C(F)(F)F)c2)CC1` (mixture of isomers) [(±)-exo-1], the IC50 in test [1] (setting [5]) was 10 µM; in test [1] (value in brackets, Table 1, read-out: EAAT1 pIC50 ± S.E.M. (converted)), 9.33 µM; in test [2] (setting [6]), 40 µM; in test [2] (value in brackets, Table 1, read-out: EAAT2 pIC50 ± S.E.M. (converted)) it was 36.3 µM. Also, the “inhibitory activity at EAAT1-3 (in words)” value in test [4] is listed as “IC50 values at the three transporters in the mid-micromolar range”.
Regarding `O=C(c1cccc(Oc2ccccc2)c1)N1CCN(c2cccc(C(F)(F)F)c2)CC1` [2.13, (3-Phenoxyphenyl)(4-(3-(trifluoromethyl)phenyl)piperazin-1-yl)methanone], the IC50 in test [1] (setting [5]), in test [2] (setting [6]) and in test [3] (setting [7]) was greater than 300 µM each time.
Take `Nc1cccc(C(=O)N2CCN(c3cccc(C(F)(F)F)c3)CC2)c1` [2.19, 3-Aminophenyl-(4-(3-(trifluoromethyl)phenyl)piperazin-1-yl)methanone]: the IC50 in test [1], in test [2] and in test [3] was greater than 300 µM in each case.
For `O=C(c1cccs1)N1CCN(c2cccc(C(F)(F)F)c2)CC1` [2.16, Thiophen-2-yl(4-(3-(trifluoromethyl)phenyl)piperazin-1-yl)methanone], the IC50 in test [1], in test [2] and in test [3] was greater than 100 µM each time.
As to `O=C(C1CC2CCC1C2)N1CCN(c2cccc(Cl)c2)CC1` (racemic) [(±)-endo-exo-3.7, (±)-endo-exo-Bicyclo[2.2.1]heptan-2-yl(4-(3-chlorophenyl)piperazin-1-yl)methanone], the IC50 in test [1] (setting [8]) was roughly 300 µM; in test [2] (setting [9]), roughly 300 µM; in test [3] (setting [10]), greater than 300 µM.
As to `O=C(C1CC1)N1CCN(c2cccc(C(F)(F)F)c2)CC1` [2.5, Cyclopropyl(4-(3-(trifluoromethyl)phenyl)piperazin-1-yl)methanone], the IC50 in test [1] (setting [5]), in test [2] (setting [6]) and in test [3] (setting [7]) was greater than 300 µM throughout.
Turning to `O=C(N1CCN(c2cccc(C(F)(F)F)c2)CC1)C12CC3CC(CC(C3)C1)C2` [2.2, Adamantan-1-yl(4-(3-(trifluoromethyl)phenyl)piperazin-1-yl)methanone], the IC50 in test [1], in test [2] and in test [3] was greater than 300 µM throughout.
Take `Nc1ccc(C(=O)N2CCN(c3cccc(C(F)(F)F)c3)CC2)cc1` [2.18, 4-Aminophenyl-(4-(3-(trifluoromethyl)phenyl)piperazin-1-yl)methanone]: the IC50 in test [1], in test [2] and in test [3] was greater than 300 µM in each case.
For the molecule `O=C(Cc1ccccc1)N1CCN(c2cccc(C(F)(F)F)c2)CC1` [2.17, 1-(4-(3-(Trifluoromethyl)phenyl)piperazin-1-yl)-2-phenylethanone], the IC50 in test [1] was greater than 300 µM; in test [2], greater than 300 µM; in test [3] it was greater than 1000 µM.
In the case of `CC(=O)N1CCN(c2cccc(C(F)(F)F)c2)CC1` [2.7, 1-(4-(3-(Trifluoromethyl)phenyl)piperazin-1-yl)ethanone], the IC50 in test [1] (setting [5]) was greater than 1000 µM; in test [2] (setting [6]), greater than 100 µM; in test [3] (setting [7]), greater than 100 µM.
For `O=C(C1CC2CCC1C2)N1CCN(c2ccc(F)cc2F)CC1` (racemic) [(±)-endo-exo-3.11, (±)-endo-exo-Bicyclo[2.2.1]heptan-2-yl(4-(2,4-difluorophenyl)piperazin-1-yl)methanone], the IC50 in test [1] (setting [8]), in test [2] (setting [9]) and in test [3] (setting [10]) was greater than 300 µM each time.
Turning to `O=C(C1CC2CCC1C2)N1CCN(c2cccc(C(F)(F)F)c2)CC1` (racemic) [(±)-endo-exo-1, (±)-endo-exo-Bicyclo[2.2.1]heptan-2-yl(4-(3-(trifluoromethyl)phenyl)piperazin-1-yl)methanone], the IC50 came out at 14 µM in test [1] (setting [5]), 42 µM in test [2] (setting [6]) and 14 µM in test [3] (setting [7]). In test [1] (value in brackets, Table 1), the “EAAT1 pIC50 ± S.E.M.” value is 4.87 ± 0.08. The “EAAT2 pIC50 ± S.E.M.” value in test [2] (value in brackets, Table 1) turned out to be 4.42 ± 0.11. The “EAAT3 pIC50 ± S.E.M.” value in test [3] (value in brackets, Table 1) is 4.94 ± 0.16.
For the molecule `FC(F)(F)c1cccc(N2CCN(CC3CC4CCC3C4)CC2)c1` (mixture of isomers) [(±)-endo-exo-2.34, (±)-endo-exo-Bicyclo[2.2.1]heptan-2-ylmethyl)-4-(3-(trifluoromethyl)phenyl)piperazine], the IC50 in test [1] (setting [5]), in test [2] (setting [6]) and in test [3] (setting [7]) was greater than 300 µM throughout.
On to `COc1cccc(N2CCN(C(=O)C3CC4CCC3C4)CC2)c1` (racemic) [(±)-endo-exo-3.10, (±)-endo-exo-Bicyclo[2.2.1]heptan-2-yl(4-(3-methoxyphenyl)piperazin-1-yl)methanone], for which the IC50 in test [1] (setting [8]), in test [2] (setting [9]) and in test [3] (setting [10]) was greater than 300 µM in each case.
In the case of `CC(C)CC(=O)N1CCN(c2cccc(C(F)(F)F)c2)CC1` [2.8, 3-Methyl-1-(4-(3-(trifluoromethyl)phenyl)piperazin-1-yl)butan-1-one], the IC50 in test [1] (setting [5]), in test [2] (setting [6]) and in test [3] (setting [7]) was greater than 300 µM throughout.
In the case of `N#Cc1cccc(N2CCN(C(=O)C3CC4CCC3C4)CC2)c1` (racemic) [(±)-endo-exo-3.9, 3-(4-(bicyclo[2.2.1]heptane-2-carbonyl)piperazin-1-yl)benzonitrile], the IC50 in test [1] (setting [8]), in test [2] (setting [9]) and in test [3] (setting [10]) was greater than 300 µM throughout.
Take `CC(C)(C)CC(=O)N1CCN(c2cccc(C(F)(F)F)c2)CC1` [2.9, 3,3-Dimethyl-1-(4-(3-(trifluoromethyl)phenyl)piperazin-1-yl)butan-1-one]: the IC50 in test [1] (setting [5]), in test [2] (setting [6]) and in test [3] (setting [7]) was greater than 300 µM throughout.
As to `FC(F)(F)c1cccc(N2CCN(Cc3ccccc3)CC2)c1` [2.35, 1-Benzyl-4-(3-(trifluoromethyl)phenyl)piperazine], the values for the IC50 in test [1], in test [2] and in test [3] were greater than 300 µM, greater than 300 µM and greater than 1000 µM, respectively.
Consider `O=C(C1CC2CCC1CC2)N1CCN(c2cccc(C(F)(F)F)c2)CC1` (centres unmarked) [2.1, Bicyclo[2.2.2]octan-2-yl(4-(3-(trifluoromethyl)phenyl)piperazin-1-yl)methanone], for which the IC50 in test [1] (setting [5]), in test [2] (setting [6]) and in test [3] (setting [7]) was greater than 300 µM throughout.
With `CC(C)(C)C(=O)N1CCN(c2cccc(C(F)(F)F)c2)CC1` [2.6, 2,2-Dimethyl-1-(4-(3-(trifluoromethyl)phenyl)piperazin-1-yl)propan-1-one], the IC50 in test [1] was greater than 1000 µM; in test [2], greater than 300 µM; in test [3], greater than 300 µM.
Turning to `O=C(c1cccc2ccccc12)N1CCN(c2cccc(C(F)(F)F)c2)CC1` [2.15, Naphthalen-1-yl(4-(3-(trifluoromethyl)phenyl)piperazin-1-yl)methanone], the IC50 in test [1], in test [2] and in test [3] was greater than 300 µM each time.
Regarding `NCC(=O)N1CCN(c2cccc(C(F)(F)F)c2)CC1` [2.20, 2-Amino-1-(4-(3-(trifluoromethyl)phenyl)piperazin-1-yl)ethanone], the IC50 in test [1], in test [2] and in test [3] was greater than 300 µM throughout.
